Experimental data published in US20180193336A1, “SPRAY DRY FORMULATIONS” (Pulmokine, Inc., priority 2013, published 2018).
Read-outs that look alike come from different tables or passages of the source. Marks after values point to notes of the source that are not given here.

Columns and labels:
[1] = system: PDGFAA stimulated AKT phosphorylation; assay: In cell Western, PDGFAA stimulated AKT phosphorylation in human fetal lung fibroblasts; type: cell-based; conditions: for IC50: Fibroblast
Procedure: HLFs were maintained in subculture at no more than 6 passages in DMEM with 5% FBS and 4 mM Glutamax at 37° C., 5% CO2. HLFs were plated and grown to 70-80% confluence in 96 well plates then serum-starved for 48 hours. […] Antibodies were detected using IRDye 680LT goat anti-mouse IgG and IRDye 800 W goat α-rabbit IgG conjugated antibodies. After washing, the signal was quantified using an Odyssey Infrared Imaging System (LI-COR). Phosphoprotein signal (800 nm) was normalized to total protein signal (700 nm) acquired from each well and experimental duplicates on same plate were averaged and reported.

[2] = Fluorescent imaging of lung distribution after inhalation with IR780 tracer; type: in vivo, rat; conditions: 2 min inhalation with IR780 tracer
Procedure: A near IR fluorescent tracer, IR-780, was added to the drug solution in the nebulizer to ensure dried aerosol particles contained both the drug and IR tracer. After a two min exposure, animals were placed under general anesthesia underwent intubation via tracheostomy, and the lungs were excised. OCT/PBS was infused via the pulmonary artery, the lung insufflated with air, and the lungs frozen in the vapor phase of liquid nitrogen. Serial approximate 2 mm sections of lung were imaged on a Licor Odyssey Imager.

[3] = Aerosol particle size of nebulized drug, Anderson cascade impactor; type: physicochemical; conditions: 20 mg/ml in 1M tosylic acid, PARI nebulizer
Procedure: PK10453 (Structure 2) was dissolved at a concentration of 20 mg/ml in 1M tosylic acid. Nebulization was performed with a PARI Nebulizer with an air pressure of 12.5 psi. The aerosol droplets were neutralized by ammonia vapor that was passed into the aerosol air stream. The particles were then dried by flowing through an annular ring of silica bead cartridges prior to reaching the exposure chamber. The 6-port exposure chamber was a nose-only exposure system custom designed and built by Powerscope Inc. (Minneapolis, Minn.). The vacuum flow rate at each port was separately controlled by a flow meter. The aerosol particle size was measured at the exit port of the drying column with an Anderson (Mark II) cascade impactor. The mass median aerodynamic diameter (MMAD) was 2 μm and the associated geometric standard deviation (GSD) was 1.6.

[4] = system: phosphorylated AKT, STAT3 and ERK1/2 in lung extracts; assay: NanoPro immunoassay of lung extracts, rat MCT+PN model; type: in vivo
Procedure: Relative differences in phosphorylated ERK1/2 and STAT isoforms were measured with a anoProlOO® immunoassay system (Protein Simple/Cell Biosciences, CA). See Fan et al., “Nanofluidic proteomic assay for serial analysis of oncoprotein activation in clinical specimens.” Nat Med 15:566-571 (2009).

[5] = Systemic blood pressure study in ambulatory MCT treated rats; type: in vivo, rat
Procedure: The effect of PK10453 (Structure 2) on systemic BP was studied in ambulatory MCT treated rats with DSI PAC40 transmitters implanted in the descending aorta. […] Blood pressure was recorded before each morning dose.

rat MCT+PN model = assay: Two-chamber plethysmography, PK10453 in rat MCT+PN model; type: in vivo; conditions: for MV (minute ventilation) / PEF (peak expiratory flow) / PIF (peak inspiratory flow) / SRaw (airway resistance) / TV (tidal volume) / f (breathing frequency): MCT+PN, mean
Procedure: Plethysmography was performed with an EMKA dual chamber plethysmograph and IOX software. Parameters measured included breathing frequency, tidal volume, minute ventilation, peak inspiratory and expiratory flow, and airway resistance (SRaw). Animals were acclimatized to the plethysmograph for three days prior to first data acquisition. Measurements were made prior to the first dose of drug and at the end of the study.

[6] = system: rat monocrotaline plus pneumonectomy model; assay: Trichrome stain of lung sections, rat monocrotaline plus pneumonectomy model; type: in vivo; conditions: inhaled; compared to vehicle treated animal; FIG. 42
Description: At the end of the study, the heart and lungs were removed from ventilated animals under general anesthesia. Heparinized saline was infused under pressure through the main pulmonary artery. The right upper lobe was immediately tied off and placed in liquid nitrogen for Western blot and NanoPro 100 assay analysis. The heart was removed, and the RV free wall, interventricular septum and LV free wall dissected and weighed. Buffered formalin (10%) was infused under pressure both through the pulmonary artery and the trachea. Morphometric analysis was performed on H&E stained formalin fixed tissue sectioned at 8 μm. The media area and lumen area of pulmonary arterioles were measured with Image J software by a technician blinded to treatment group. Measurements were made on 20 pulmonary arterioles per section. The ratio of the lumen area to the total media area was determined. This ratio normalizes the variation in total pulmonary arteriole area. In addition, occlusive analysis was performed in the monocrotaline plus pneumonectomy study (specifically efficacy study 5) according to the method of Homma et al., “Involvement of RhoA/Rho kinase signaling in protection against monocrotaline-induced pulmonary hypertension in pneumonectomized rats by dehydroepiandrosterone.” Am J Physiol Lung Cell Mol Physiol. Vol. 295:L71-8 (2008). […]

COc1cc(-c2cncc(N[C@@H](C)c3cccc(NC(=O)c4cncc(C)c4)c3)n2)ccc1O [PK10453, (S)—N-(3-(1-((6-(4-hydroxy-β-methoxyphenyl)pyrazin-2yl)amino)ethyl)phenyl)-5-methylnicotinamide]
IC50 for PDGFAA stimulated phosphorylation of AKT, PK10453 compared with imatinib [1]: not significantly different
IC50 ([1]; legend of FIG. 2 PANEL A, read-out: IC50 for PDGFAA stimulation of pAKT(S473)): 300 to 600 nM
IC50 ([1]; legend of FIG. 2 PANEL B, read-out: IC50 for PDGFAA stimulation of pAKT(T308)): 300 to 600 nM
spatial distribution in lung after inhalation [2]: well distributed throughout the lungs
mass median aerodynamic diameter (MMAD) of dried nebulized aerosol [3]: 2 μm
pAKT(Ser473)/AKT ratio in lung extracts [4]: significant reduction
pERK1/ERK1 in lung homogenates ([4]; D4 and D8 compared to vehicle): significant reductions
pSTAT3/STAT3 ratio in lung ([4]; D4 and D8 compared to vehicle): significant reduction
ppERK1/ERK1 in lung homogenates ([4]; D4 and D8 compared to vehicle): significant reductions
pAKT(Thr308)/AKT ratio in lung extracts ([4]; V, D4, D8): not significantly different
systolic BP ([5]; MCT rats, day seven of treatment, 4 min exposure 3×/d): 131±10 mmHg
effect on systemic BP ([5]; rat MCT model): did not have an adverse effect
MV (minute ventilation) (rat MCT+PN model; D4, Day 1): 223.24 mL/min
PEF (peak expiratory flow) (rat MCT+PN model; D4, Day 1): 11.04
PIF (peak inspiratory flow) (rat MCT+PN model; D4, Day 1): 9.82
SRaw (airway resistance) (rat MCT+PN model; D4, Day 1): 39.73
TV (tidal volume) (rat MCT+PN model; D4, Day 1): 1.00 mL
f (breathing frequency) (rat MCT+PN model; D4, Day 1): 224.68 breaths per minute
MV (minute ventilation) (rat MCT+PN model; D4, Day 15): 176.12§ mL/min
PEF (peak expiratory flow) (rat MCT+PN model; D4, Day 15): 9.33*
PIF (peak inspiratory flow) (rat MCT+PN model; D4, Day 15): 7.82*
SRaw (airway resistance) (rat MCT+PN model; D4, Day 15): 33.09
TV (tidal volume) (rat MCT+PN model; D4, Day 15): 0.85 mL
f (breathing frequency) (rat MCT+PN model; D4, Day 15): 217.12 breaths per minute
MV (minute ventilation) (rat MCT+PN model; D8, Day 1): 174.68 mL/min
PEF (peak expiratory flow) (rat MCT+PN model; D8, Day 1): 9.43
PIF (peak inspiratory flow) (rat MCT+PN model; D8, Day 1): 8.54
SRaw (airway resistance) (rat MCT+PN model; D8, Day 1): 36.01
TV (tidal volume) (rat MCT+PN model; D8, Day 1): 0.74 mL
f (breathing frequency) (rat MCT+PN model; D8, Day 1): 259.13 breaths per minute
MV (minute ventilation) (rat MCT+PN model; D8, Day 15): 128.49 mL/min
PEF (peak expiratory flow) (rat MCT+PN model; D8, Day 15): 6.64
PIF (peak inspiratory flow) (rat MCT+PN model; D8, Day 15): 6.06
SRaw (airway resistance) (rat MCT+PN model; D8, Day 15): 49.26
TV (tidal volume) (rat MCT+PN model; D8, Day 15): 0.63 mL
f (breathing frequency) (rat MCT+PN model; D8, Day 15): 232.11 breaths per minute
effect on lung function (rat MCT+PN model; inhaled, 2-wk course): did not adversely affect lung function
collagen deposition in lung sections (trichrome stain) [6]: less collagen deposition
